Assay results from US20230115945A1, “AMINOPYRIMIDINE COMPOUNDS” (TYRA BIOSCIENCES, INC., priority 2019, published 2023).
pKd: −log10 of the molar value.

Experiments:
FGFR3 = molecular target: T1, FGFR3 (Homo sapiens, UniProt P22607); experiment: Kinase binding assay (Kd), FGFR3; conditions: 11-point 3-fold dilution, qPCR readout
T1 construct: made in house; host or cells: E. coli host derived from BL21, infected with T7 phage
In short: (§1)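 Competition binding, phage-tagged kinase vs. bead-bound ligand; 11-pt 3-fold cpd series, 0.9% DMSO final; 1 h RT shaking; eluate kinase by qPCR; Kd via Hill fit (slope −1, Levenberg–Marquardt).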

[1] = tested on: SNU-16 cells (Gastric Carcinoma, FGFR2 amplification); experiment: Cancer cell line cell viability assay, SNU-16; format: cell-based; conditions: Homo sapiens, 72 hours, Cell Titer-Glo 2.0, read-out: Cancer Cell Viability Assays SNU-16 (IC50 nM)
From the text: (§2) [table] To detect the change of intracellular ATP by Cell Titer-Glo® and to evaluate the inhibitory effect of the compounds on cancer cell lines by determining the in vitro IC50 value of the compounds. Cell Titer-Glo® 2.0 Luminescent cell viability assay reagent was purchased from Promega (Madison, Wis.). RT112/84, SNU-16, and KG-1 cell lines were purchased from American Type Culture Collection (Manassas, Va.). UM-UC-14 cell line was purchased from Sigma (St. Louis, Mo.). RT112/84, UM-UC-14, SNU-16, and KG-1 cells were cultured in RPMI1640 media supplemented with 10% fetal bovine serum. Cultures were maintained at 37° C. in a humidified atmosphere of 5% CO2 and 95% air. Cell Viability Assay Procedure: Cells were plated in 96-well clear bottom/white plates (Corning #3903) at 10,000 cells/well in 100 μl of media, incubated overnight. The next day, test compound DMSO stock solutions were made at 10 mM and 2 μM final concentration. Compounds were then added to cells in a 9-dose, […] dilution series starting at 30 μM with an HP 300e Digital Dispenser (each dose was applied in triplicate). DMSO was backfilled to each well up to 301 nL total volume of test compound+DMSO, and a total of 301 nL DMSO was added to a control/no test compound well in triplicate. The cells in cell culture plates were incubated with the compounds at 37° C. and 5% CO2 for 72 hours. Then 50 μl of Cell Titer Glo 2.0 reagent was added to each well of the cell culture plates. The contents were covered from light and mixed on an orbital shaker at room temperature for 10 min. Luminescence was recorded by a Synergy H1 Microplate Reader (Biotek, Winooski, Vt.). Cells were assessed as a percentage of DMSO only treated control cells. Curves were plotted and IC50 values were calculated using the GraphPad Prism 8 program based on a sigmoidal dose-response equation (4 parameter).

FGFR2 = molecular target: T2, FGFR2 (Homo sapiens, UniProt P21802); experiment: Kinase binding assay (Kd), FGFR2; conditions: 11-point 3-fold dilution, qPCR readout
T2 construct: made in house; host or cells: E. coli host derived from BL21, infected with T7 phage
In short: as §1

FGFR1 = molecular target: T3, FGFR1 (Homo sapiens, UniProt P11362); experiment: Kinase binding assay (Kd), FGFR1; conditions: 11-point 3-fold dilution, qPCR readout
T3 construct: made in house; host or cells: E. coli host derived from BL21, infected with T7 phage
In short: as §1

[2] = tested on: RT112/84 cells (Bladder Cancer, FGFR3-TACC3 fusion); experiment: Cancer cell line cell viability assay, RT112/84; format: cell-based; conditions: Homo sapiens, 72 hours, Cell Titer-Glo 2.0, read-out: Cancer Cell Viability Assays RT112/84 (IC50 nM)
From the text: as §2

FGFR4 = molecular target: T4, FGFR4 (Homo sapiens, UniProt P22455); experiment: Kinase binding assay (Kd), FGFR4; conditions: 11-point 3-fold dilution, qPCR readout
T4 construct: made in house; host or cells: E. coli host derived from BL21, infected with T7 phage
In short: as §1

FGFR3 (V555M) = molecular target: T5, FGFR3 (V555M) (Homo sapiens, UniProt P22607, V555M); experiment: Kinase binding assay (Kd), FGFR3 (V555M); conditions: 11-point 3-fold dilution, qPCR readout
T5 construct: made in house; host or cells: E. coli host derived from BL21, infected with T7 phage
In short: as §1

T2 sequence (P21802 22-821): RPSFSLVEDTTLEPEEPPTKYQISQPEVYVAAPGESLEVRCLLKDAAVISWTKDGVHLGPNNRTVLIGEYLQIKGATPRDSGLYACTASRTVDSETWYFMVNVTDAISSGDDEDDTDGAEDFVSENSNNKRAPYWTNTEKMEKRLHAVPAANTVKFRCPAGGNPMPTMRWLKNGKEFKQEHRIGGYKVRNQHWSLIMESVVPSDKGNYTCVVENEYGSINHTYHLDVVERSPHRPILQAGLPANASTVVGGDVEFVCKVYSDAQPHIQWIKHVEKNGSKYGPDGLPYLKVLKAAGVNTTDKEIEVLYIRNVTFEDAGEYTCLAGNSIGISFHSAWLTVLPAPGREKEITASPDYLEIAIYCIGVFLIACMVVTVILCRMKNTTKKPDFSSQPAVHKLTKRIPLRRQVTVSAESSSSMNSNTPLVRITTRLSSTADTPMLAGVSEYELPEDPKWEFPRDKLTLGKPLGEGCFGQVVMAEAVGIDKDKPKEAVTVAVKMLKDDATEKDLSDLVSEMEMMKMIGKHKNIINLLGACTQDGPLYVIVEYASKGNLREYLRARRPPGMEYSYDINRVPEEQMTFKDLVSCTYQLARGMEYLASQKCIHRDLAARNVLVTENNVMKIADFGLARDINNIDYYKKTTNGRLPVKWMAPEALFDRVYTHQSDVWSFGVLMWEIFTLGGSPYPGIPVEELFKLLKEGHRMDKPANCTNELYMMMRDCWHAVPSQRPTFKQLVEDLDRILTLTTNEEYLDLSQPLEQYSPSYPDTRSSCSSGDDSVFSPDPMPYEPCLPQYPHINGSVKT
T1 sequence (P22607 23-806): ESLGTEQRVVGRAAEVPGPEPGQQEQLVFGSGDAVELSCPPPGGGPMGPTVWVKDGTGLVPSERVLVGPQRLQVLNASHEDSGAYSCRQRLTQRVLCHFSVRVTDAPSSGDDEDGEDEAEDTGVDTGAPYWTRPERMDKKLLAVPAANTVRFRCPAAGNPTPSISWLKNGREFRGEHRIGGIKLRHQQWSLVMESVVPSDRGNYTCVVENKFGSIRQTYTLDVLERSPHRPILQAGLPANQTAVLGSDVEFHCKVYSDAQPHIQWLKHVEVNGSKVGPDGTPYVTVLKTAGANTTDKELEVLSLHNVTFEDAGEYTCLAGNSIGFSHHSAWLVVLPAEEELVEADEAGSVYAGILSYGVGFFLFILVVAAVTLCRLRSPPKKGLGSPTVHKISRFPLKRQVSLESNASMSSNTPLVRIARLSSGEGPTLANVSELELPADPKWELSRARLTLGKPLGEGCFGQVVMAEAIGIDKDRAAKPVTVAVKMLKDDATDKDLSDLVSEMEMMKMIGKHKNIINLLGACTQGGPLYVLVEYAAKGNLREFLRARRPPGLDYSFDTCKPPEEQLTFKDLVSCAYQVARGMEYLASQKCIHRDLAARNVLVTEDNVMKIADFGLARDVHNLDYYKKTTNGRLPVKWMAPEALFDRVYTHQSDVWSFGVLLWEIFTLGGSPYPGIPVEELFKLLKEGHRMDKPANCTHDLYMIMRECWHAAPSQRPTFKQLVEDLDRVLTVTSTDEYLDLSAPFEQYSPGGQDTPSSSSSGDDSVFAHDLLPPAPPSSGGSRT
T4 sequence (P22455 22-802): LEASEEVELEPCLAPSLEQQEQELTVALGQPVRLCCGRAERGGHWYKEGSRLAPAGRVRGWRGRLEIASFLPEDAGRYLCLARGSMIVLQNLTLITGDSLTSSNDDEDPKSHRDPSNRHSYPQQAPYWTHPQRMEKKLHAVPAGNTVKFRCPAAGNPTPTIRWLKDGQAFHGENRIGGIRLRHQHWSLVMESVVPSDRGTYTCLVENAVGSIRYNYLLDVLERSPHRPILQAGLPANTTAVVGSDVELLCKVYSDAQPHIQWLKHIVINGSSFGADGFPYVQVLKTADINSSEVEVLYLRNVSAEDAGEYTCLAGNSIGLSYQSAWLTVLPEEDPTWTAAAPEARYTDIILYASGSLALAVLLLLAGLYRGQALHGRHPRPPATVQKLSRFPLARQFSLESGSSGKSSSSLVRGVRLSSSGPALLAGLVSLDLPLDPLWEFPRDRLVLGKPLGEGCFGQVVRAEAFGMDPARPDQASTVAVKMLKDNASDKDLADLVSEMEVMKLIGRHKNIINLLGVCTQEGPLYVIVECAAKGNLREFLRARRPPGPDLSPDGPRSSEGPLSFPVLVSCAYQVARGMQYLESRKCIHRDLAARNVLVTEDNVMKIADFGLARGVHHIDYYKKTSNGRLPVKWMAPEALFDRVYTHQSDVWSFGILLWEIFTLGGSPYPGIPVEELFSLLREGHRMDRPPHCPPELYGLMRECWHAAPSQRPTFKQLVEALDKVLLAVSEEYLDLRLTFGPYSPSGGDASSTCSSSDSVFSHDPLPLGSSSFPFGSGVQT
T5 sequence (P22607 23-806 V555M): as the sequence (P22607 23-806) above, with V533M counted along it
T3 sequence (P11362 22-822): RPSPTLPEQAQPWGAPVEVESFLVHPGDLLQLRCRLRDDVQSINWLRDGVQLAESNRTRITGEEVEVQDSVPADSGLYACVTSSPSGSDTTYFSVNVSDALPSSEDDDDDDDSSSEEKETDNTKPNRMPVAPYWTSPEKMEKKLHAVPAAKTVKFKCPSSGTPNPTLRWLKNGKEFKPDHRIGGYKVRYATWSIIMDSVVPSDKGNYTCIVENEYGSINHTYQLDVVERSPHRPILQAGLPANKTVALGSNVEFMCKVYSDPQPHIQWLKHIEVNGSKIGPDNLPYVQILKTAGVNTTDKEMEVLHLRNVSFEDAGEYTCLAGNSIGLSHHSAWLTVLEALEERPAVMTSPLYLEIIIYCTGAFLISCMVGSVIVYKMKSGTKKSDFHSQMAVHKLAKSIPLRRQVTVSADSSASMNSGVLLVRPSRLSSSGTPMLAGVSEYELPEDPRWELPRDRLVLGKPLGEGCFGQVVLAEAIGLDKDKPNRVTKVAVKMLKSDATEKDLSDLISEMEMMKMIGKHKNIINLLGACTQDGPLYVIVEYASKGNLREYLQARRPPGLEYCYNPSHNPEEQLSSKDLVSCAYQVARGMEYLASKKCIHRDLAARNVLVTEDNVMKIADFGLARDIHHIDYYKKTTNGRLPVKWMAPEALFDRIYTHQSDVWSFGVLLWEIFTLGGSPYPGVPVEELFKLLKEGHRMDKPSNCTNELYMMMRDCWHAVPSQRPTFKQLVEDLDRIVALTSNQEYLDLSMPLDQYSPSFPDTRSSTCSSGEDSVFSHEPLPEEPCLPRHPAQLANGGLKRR

SMILES	Kd (FGFR3) [nM]	IC50 [1] [nM]	Kd (FGFR2) [nM]	Kd (FGFR1) [nM]	IC50 [2] [nM]	pKd (FGFR4)	Kd (FGFR3 (V555M)) [nM]
CC(C)Oc1cc(N=S(C)(C)=O)ccc1Nc1ncc(Cl)c(-c2c[nH]c3ccccc23)n1 [Example 3, 5-chloro-N-[4-[[dimethyl(oxo)-λ^6-sulfanylidene]amino]-2-isopropoxy-phenyl]-4-(1H-indol-3-yl)pyrimidin-2-amine]	4700	73	11000	4500	100	6.54	
Cc1cnc(Nc2ccc(N=S(C)(C)=O)nc2)nc1-c1c[nH]c2ccccc12 [Example 23, N-[6-[[dimethyl(oxo)-λ^6-sulfanylidene]amino]-3-pyridyl]-4-(1H-indol-3-yl)-5-methyl-pyrimidin-2-amine]	12	132	6	8	118	6.89	1
Cc1cc(Nc2ncc(C)c(-c3c[nH]c4ccccc34)n2)ccc1N=S(C)(C)=O [Example 24, N-[4-[[dimethyl(oxo)-λ^6-sulfanylidene]amino]-3-methyl-phenyl]-4-(1H-indol-3-yl)-5-methyl-pyrimidin-2-amine]	10	60	7	4	33	7.06	1
Cc1cnc(Nc2ccc(N=S(C)(C)=O)c(Cl)c2)nc1-c1c[nH]c2ccccc12 [Example 25, N-[3-chloro-4-[[dimethyl(oxo)-λ^6-sulfanylidene]amino]phenyl]-4-(1H-indol-3-yl)-5-methyl-pyrimidin-2-amine]	13	117	9	7	63	7.05	2
COc1cc(N=S2(=O)CCN(C)CC2)ccc1Nc1ncc(Cl)c(-c2c[nH]c3ccccc23)n1 [Example 38, 5-Chloro-4-(1H-indol-3-yl)-N-[2-methoxy-4-[(4-methyl-1-oxo-1,4-thiazinan-1-ylidene)-amino]phenyl]pyrimidin-2-amine]	34	130	92	25	119	7.59	3
Cc1cnc(Nc2ccc(N=S3(=O)CCN(C)CC3)cc2)nc1-c1c[nH]c2ccccc12 [Example 49, 4-(1H-Indol-3-yl)-5-methyl-N-[4-[(4-methyl-1-oxo-1,4-thiazinan-1-ylidene)amino]-phenyl]pyrimidin-2-amine]	8	189	4	8	78	6.92	1
Cc1cnc(Nc2ccc(S(=N)(=O)C3CC3)cc2)nc1-c1c[nH]c2ccccc12 (stereo not shown) [Example 51, N-[4-(Cyclopropyl-sulfonimidoyl)-phenyl]-4-(1H-indol-3-yl)-5-methyl-pyrimidin-2-amine]	18	45	6	10	48	6.89	3
CS(=N)(=O)c1ccc(Nc2ncc(Cl)c(-c3c[nH]c4ccccc34)n2)cc1 (stereo not shown) [Example 52, 5-Chloro-4-(1H-indol-3-yl)-N-[4-(methylsulfonimidoyl)-phenyl]pyrimidin-2-amine]	24	83	9	27	76	6.41	6
N=S1(=O)CCN(c2ccc(Nc3ncc(Cl)c(-c4c[nH]c5ccccc45)n3)cc2)CC1 [Example 53, 5-Chloro-N-[4-(1-imino-1-oxo-1,4-thiazinan-4-yl)phenyl]-4-(1H-indol-3-yl)pyrimidin-2-amine]	11	31	3	5	22	7.13	1
Cc1cnc(Nc2ccc(N3CCS(=N)(=O)CC3)cc2)nc1-c1c[nH]c2ccccc12 [Example 54, N-[4-(1-Imino-1-oxo-1,4-thiazinan-4-yl)phenyl]-4-(1H-indol-3-yl)-5-methyl-pyrimidin-2-amine]	13	44	7	10	33	7.00	2
CN1CCS(=O)(=Nc2ccc(Nc3ncc(Cl)c(-c4c[nH]c5ccccc45)n3)cc2)CC1 [Example 55, 5-Chloro-4-(1H-indol-3-yl)-N-[4-[(4-methyl-1-oxo-1,4-thiazinan-l-ylidene)amino]-phenyl]pyrimidin-2-amine]	23	40	6	13	49	6.96	2
CN(C)C/C=C/C(=O)Nc1ccc2c(ccn2-c2nc(Nc3ccc(N=S(C)(C)=O)cc3)ncc2Cl)c1 [Example 67, (E)-N-[1-[5-Chloro-2-[4-[[dimethyl(oxo)-λ^6-sulfanylidene]amino]anilino]-pyrimidin-4-yl]indol-5-yl]-4-(dimethylamino)but-2-enamide]	62	1450	120	130	421	6.29	9.8
C=CC(=O)Nc1ccc2c(ccn2-c2nc(Nc3ccc(N=S4(=O)CCN(C)CC4)cc3)ncc2Cl)c1 [Example 69, N-[1-[5-Chloro-2-[4-[(4-methyl-1-oxo-1,4-thiazinan-1-ylidene)amino]anilino]pyrimidin-4-yl]indol-5-yl]prop-2-enamide]	14	14	28	33	82	6.80	3.8
C=CC(=O)Nc1ccc2c(ccn2-c2nc(Nc3ccc(S(C)(=N)=O)cc3)ncc2C)c1 (stereo not shown) [Example 74, N-[1-[5-Methyl-2-[4-(methylsulfonimidoyl)anilino]-pyrimidin-4-yl]indol-5-yl]prop-2-enamide]	41	9	77	140	713	6.25	20
CS(C)(=O)=Nc1ccc(Nc2ncc(Cl)c(-n3ncc4cc(N)ccc43)n2)cc1 [Example 87, 1-[5-Chloro-2-[4-[[dimethyl(oxo)-λ^6-sulfanylidene]amino]anilino]-pyrimidin-4-yl]indazol-5-amine]	130		130	160		5.62	16
C=CC(=O)Nc1ccc2c(-c3nc(Nc4ccc(S(C)(=N)=O)cc4)ncc3Cl)c[nH]c2c1 (stereo not shown) [Example 89, N-[3-[5-chloro-2-[4-(methylsulfonimidoyl)anilino]pyrimidin-4-yl]-1H-indol-6-yl]prop-2-enamide]	70		50	76		6.29	7.5
C=CC(=O)Nc1ccc2c(-c3nc(Nc4ccc(S(=N)(=O)C5CC5)cc4)ncc3Cl)c[nH]c2c1 (stereo not shown) [Example 90, N-[3-[5-Chloro-2-[4-(cyclopropylsulfonimidoyl)anilino]pyrimidin-4-yl]-1H-indol-6-yl]prop-2-enamide]	41	71	59	47	81	6.44	4
C=CC(=O)Nc1cccc2c(-c3nc(Nc4ccc(S(C)(=N)=O)cc4)ncc3Cl)c[nH]c12 (stereo not shown) [Example 91, N-[3-[5-chloro-2-[4-(methylsulfonimidoyl)anilino]pyrimidin-4-yl]-1H-indol-7-yl]prop-2-enamide]	48	19	24	19	48	6.89	2
